Values after ≈ are worked out from the molar mass of the structure shown.
Key:
Cryptococcus neoformans [1] = test: Antifungal activity against Cryptococcus neoformans cgmcc 2.3161 by broth microdilution assay; assay type: functional
Candida albicans [2] = test: Antifungal activity against Candida albicans ATCC SC5314 by broth microdilution assay; assay type: functional
Candida albicans [3] = test: Antifungal activity against Candida albicans CPCC 400523 by broth microdilution assay; assay type: functional
Candida tropicalis = test: Antifungal activity against Candida tropicalis cgmcc 2.3739 by broth microdilution assay; assay type: functional
Aspergillus fumigatus = test: Antifungal activity against Aspergillus fumigatus cgmcc 3.7795 by broth microdilution assay; assay type: functional
[4] = target: T1, Lanosterol 14-alpha demethylase (Candida albicans (strain SC5314 / ATCC MYA-2876) (Yeast), UniProt P10613); test: Inhibition of CYP51 in Candida albicans ATCC SC5314 assessed as sterol composition in membrane at 8 ug/ml after 16 hrs by GC-MS analysis (reference value: 7.5%); design: scale not given: the % may be the effect or the level left; details: candida albicans sc5314, 16 h
T1 sequence (P10613 whole entry): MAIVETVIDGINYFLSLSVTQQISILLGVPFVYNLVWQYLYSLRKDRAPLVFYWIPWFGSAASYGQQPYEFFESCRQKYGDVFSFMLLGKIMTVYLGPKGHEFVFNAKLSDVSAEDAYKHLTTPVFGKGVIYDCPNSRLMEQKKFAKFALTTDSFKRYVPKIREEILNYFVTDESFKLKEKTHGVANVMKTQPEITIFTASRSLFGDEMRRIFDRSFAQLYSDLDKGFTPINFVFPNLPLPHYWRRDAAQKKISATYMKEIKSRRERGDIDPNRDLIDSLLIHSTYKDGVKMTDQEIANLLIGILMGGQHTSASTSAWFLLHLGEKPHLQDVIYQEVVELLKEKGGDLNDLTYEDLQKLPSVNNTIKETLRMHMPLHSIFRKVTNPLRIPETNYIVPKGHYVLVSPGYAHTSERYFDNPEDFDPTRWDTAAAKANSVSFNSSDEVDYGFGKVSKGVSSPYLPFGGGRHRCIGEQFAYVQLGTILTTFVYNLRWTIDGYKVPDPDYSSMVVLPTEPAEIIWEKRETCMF

[5] = target: T1, Lanosterol 14-alpha demethylase; test: Inhibition of CYP51 in Candida albicans ATCC SC5314 assessed as obtusifoliol composition of the total sterol fraction in membrane at 8 ug/ml after 16 hrs by GC-MS analysis relative to control; design: scale not given: the % may be the effect or the level left; details: candida albicans sc5314, 16 h
Candida albicans [6] = test: Antifungal activity against fluconazole-resistant Candida albicans 103 by broth microdilution assay; assay type: functional
Candida albicans [7] = test: Antifungal activity against fluconazole-resistant Candida albicans 100 by broth microdilution assay; assay type: functional
[8] = target: T1, Lanosterol 14-alpha demethylase; test: Inhibition of CYP51 in Candida albicans ATCC SC5314 assessed as lanosterol composition of the total sterol fraction in membrane at 8 ug/ml after 16 hrs by GC-MS analysis (reference value: 2.9%); design: scale not given: the % may be the effect or the level left; details: candida albicans sc5314, 16 h
[9] = target: T1, Lanosterol 14-alpha demethylase; test: Inhibition of CYP51 in Candida albicans ATCC SC5314 assessed as ergosterol composition of the total sterol fraction in membrane at 8 ug/ml after 16 hrs by GC-MS analysis (reference value: 89.6%); design: scale not given: the % may be the effect or the level left; details: candida albicans sc5314, 16 h
[10] = target: T1, Lanosterol 14-alpha demethylase; test: Inhibition of CYP51 in Candida albicans ATCC SC5314 assessed as eburicol composition of the total sterol fraction in membrane at 8 ug/ml after 16 hrs by GC-MS analysis relative to control; design: scale not given: the % may be the effect or the level left; details: candida albicans sc5314, 16 h
Candida albicans [11] = test: Antifungal activity against Candida albicans by NCCLS method; assay type: functional
Cryptococcus neoformans [12] = test: Antifungal activity against Cryptococcus neoformans by NCCLS method; assay type: functional

| SMILES | MIC (Cryptococcus neoformans [1]) [µg/mL] | MIC (Candida albicans [2]) [µg/mL] | MIC (Candida albicans [3]) [µg/mL] | MIC (Candida tropicalis) [µg/mL] | MIC (Aspergillus fumigatus) [µg/mL] | Activity [4] [%] | Activity [5] [%] | MIC (Candida albicans [6]) [µg/mL] | MIC (Candida albicans [7]) [µg/mL] | Activity [8] [%] | Activity [9] [%] | Activity [10] [%] | MIC (Candida albicans [11]) [µg/mL] | MIC (Cryptococcus neoformans [12]) [µg/mL] |
| --- | --- | --- | --- | --- | --- | --- | --- | --- | --- | --- | --- | --- | --- | --- |
| CCNC(=O)[C@H](Cn1ccnc1)NC(=O)c1nc2ccc(Br)cc2s1 | > 64 | > 64 | > 64 | > 64 | > 64 | – | – | – | – | – | – | – | – | – |
| Cc1ccc2nc(C(=O)N[C@@H](Cn3ccnc3)C(=O)OC(C)C)sc2c1 | 2 (≈ 5.37 µM) | 0.5 (≈ 1.34 µM) | 4 (≈ 10.7 µM) | 1 (≈ 2.68 µM) | > 64 | – | – | – | – | – | – | – | – | – |
| Cc1ccc2nc(C(=O)N[C@@H](Cn3ccnc3)C(=O)OCC(C)C)sc2c1 | 0.5 (≈ 1.29 µM) | 0.25 (≈ 0.647 µM) | 2 (≈ 5.17 µM) | 0.5 (≈ 1.29 µM) | > 64 | – | – | – | – | – | – | – | – | – |
| CC(C)COC(=O)[C@@H](Cn1ccnc1)NC(=O)c1nc2ccc(Br)cc2s1 | 0.5 (≈ 1.11 µM) | 0.125 (≈ 0.277 µM) | 0.25 (≈ 0.554 µM) | 0.125 (≈ 0.277 µM) | > 64 | – | – | – | – | – | – | – | – | – |
| CCOC(=O)[C@H](Cn1ccnc1)NC(=O)c1nc2ccc(C)cc2s1 | 8 (≈ 22.3 µM) | 2 (≈ 5.58 µM) | > 64 | 4 (≈ 11.2 µM) | > 64 | – | – | – | – | – | – | – | – | – |
| CC(C)COC(=O)[C@H](Cn1ccnc1)NC(=O)c1nc2ccc(F)cc2s1 | 4 (≈ 10.2 µM) | 0.5 (≈ 1.28 µM) | 16 (≈ 41 µM) | 8 (≈ 20.5 µM) | > 64 | – | – | – | – | – | – | – | – | – |
| CCCOC(=O)[C@H](Cn1ccnc1)NC(=O)c1nc2ccc(C)cc2s1 | 2 (≈ 5.37 µM) | 0.5 (≈ 1.34 µM) | 4 (≈ 10.7 µM) | 0.5 (≈ 1.34 µM) | > 64 | – | – | – | – | – | – | – | – | – |
| CC(C)COC(=O)[C@H](Cn1ccnc1)NC(=O)c1nc2c(C(F)(F)F)cccc2s1 | > 64 | > 64 | > 64 | > 64 | > 64 | – | – | – | – | – | – | – | – | – |
| CC(C)COC(=O)[C@H](Cn1ccnc1)NC(=O)c1nc2ccc(Cl)cc2s1 | 1 (≈ 2.46 µM) | 0.125 (≈ 0.307 µM) | 2 (≈ 4.92 µM) | 0.25 (≈ 0.614 µM) | > 64 | – | – | – | – | – | – | – | – | – |
| Cc1cccc2sc(C(=O)N[C@@H](Cn3ccnc3)C(=O)OCC(C)C)nc12 | > 64 | > 64 | > 64 | > 64 | > 64 | – | – | – | – | – | – | – | – | – |
| CCCOC(=O)[C@H](Cn1ccnc1)NC(=O)c1nc2ccc(Cl)cc2s1 | 2 (≈ 5.09 µM) | 0.5 (≈ 1.27 µM) | 2 (≈ 5.09 µM) | 1 (≈ 2.55 µM) | > 64 | – | – | – | – | – | – | – | – | – |
| CC(C)OC(=O)[C@H](Cn1ccnc1)NC(=O)c1nc2ccc(F)cc2s1 | > 64 | 4 (≈ 10.6 µM) | 16 (≈ 42.5 µM) | 16 (≈ 42.5 µM) | > 64 | – | – | – | – | – | – | – | – | – |
| CC(C)COC(=O)[C@H](Cn1ccnc1)NC(=O)c1nc2ccc(Br)cc2s1 | 0.5 (≈ 1.11 µM) | 0.125 (≈ 0.277 µM) | 0.25 (≈ 0.554 µM) | 0.25 (≈ 0.554 µM) | > 64 | 8.6 | 6.4 | 8 (≈ 17.7 µM) | 16 (≈ 35.4 µM) | 18.8 | 2.7 | 63.4 | – | – |
| COC(=O)[C@H](Cn1ccnc1)NC(=O)c1nc2ccc(C)cc2s1 | 8 (≈ 23.2 µM) | 8 (≈ 23.2 µM) | > 64 | 16 (≈ 46.5 µM) | > 64 | – | – | – | – | – | – | – | – | – |
| COC(=O)[C@H](Cn1ccnc1)NC(=O)c1nc2ccccc2s1 | – | – | – | – | – | – | – | – | – | – | – | – | 8 (≈ 24.2 µM) | 2 (≈ 6.05 µM) |
| COC(=O)[C@H](Cn1ccnc1)NC(=O)c1nc2ccc(Cl)cc2s1 | 32 (≈ 87.7 µM) | 8 (≈ 21.9 µM) | 16 (≈ 43.9 µM) | 8 (≈ 21.9 µM) | > 64 | – | – | – | – | – | – | – | – | – |
| COc1ccc2nc(C(=O)N[C@@H](Cn3ccnc3)C(=O)OC(C)C)sc2c1 | 32 (≈ 82.4 µM) | 2 (≈ 5.15 µM) | 4 (≈ 10.3 µM) | 2 (≈ 5.15 µM) | > 64 | – | – | – | – | – | – | – | – | – |
| CNC(=O)[C@H](Cn1ccnc1)NC(=O)c1nc2ccc(Br)cc2s1 | > 64 | > 64 | > 64 | > 64 | > 64 | – | – | – | – | – | – | – | – | – |
| CC(C)OC(=O)[C@H](Cn1ccnc1)NC(=O)c1nc2ccc(Br)cc2s1 | 2 (≈ 4.57 µM) | 0.125 (≈ 0.286 µM) | 0.5 (≈ 1.14 µM) | 0.5 (≈ 1.14 µM) | > 64 | – | – | 16 (≈ 36.6 µM) | 32 (≈ 73.2 µM) | – | – | – | – | – |
| CC(C)OC(=O)[C@@H](Cn1ccnc1)NC(=O)c1nc2ccc(Br)cc2s1 | 2 (≈ 4.57 µM) | 0.125 (≈ 0.286 µM) | 0.5 (≈ 1.14 µM) | 1 (≈ 2.29 µM) | > 64 | – | – | – | – | – | – | – | – | – |
| CC(C)OC(=O)[C@H](Cn1ccnc1)NC(=O)c1nc2ccc(Cl)cc2s1 | 2 (≈ 5.09 µM) | 0.25 (≈ 0.636 µM) | 2 (≈ 5.09 µM) | 1 (≈ 2.55 µM) | > 64 | – | – | – | – | – | – | – | – | – |
| CC(C)COC(=O)[C@H](Cn1ccnc1)NC(=O)c1nc2c(Cl)cccc2s1 | > 64 | > 64 | > 64 | > 64 | > 64 | – | – | – | – | – | – | – | – | – |
| CCOC(=O)[C@H](Cn1ccnc1)NC(=O)c1nc2ccc(Cl)cc2s1 | 8 (≈ 21.1 µM) | 0.5 (≈ 1.32 µM) | 4 (≈ 10.6 µM) | 2 (≈ 5.28 µM) | > 64 | – | – | – | – | – | – | – | – | – |
| CC(C)COC(=O)[C@H](Cn1ccnc1)NC(=O)c1nc2ccc(C(F)(F)F)cc2s1 | 0.5 (≈ 1.14 µM) | 0.125 (≈ 0.284 µM) | 2 (≈ 4.54 µM) | 0.5 (≈ 1.14 µM) | > 64 | – | – | 32 (≈ 72.7 µM) | 32 (≈ 72.7 µM) | – | – | – | – | – |
| COc1ccc2nc(C(=O)N[C@@H](Cn3ccnc3)C(=O)OCC(C)C)sc2c1 | 8 (≈ 19.9 µM) | 2 (≈ 4.97 µM) | 4 (≈ 9.94 µM) | 1 (≈ 2.48 µM) | > 64 | – | – | – | – | – | – | – | – | – |
| CC(C)OC(=O)[C@H](Cn1ccnc1)NC(=O)c1nc2ccc(C(F)(F)F)cc2s1 | 2 (≈ 4.69 µM) | 0.125 (≈ 0.293 µM) | 2 (≈ 4.69 µM) | 1 (≈ 2.35 µM) | > 64 | – | – | – | – | – | – | – | – | – |
| OC(Cn1cncn1)(Cn1cncn1)c1ccc(F)cc1F [FLUCONAZOLE] | 4 (≈ 13.1 µM) | 0.5 (≈ 1.63 µM) | 1 (≈ 3.27 µM) | 1 (≈ 3.27 µM) | > 64 | 4.8 | 6.9 | > 64 | > 64 | 18.3 | 2.1 | 67.9 | – | – |
| CCC(C)n1ncn(-c2ccc(N3CCN(c4ccc(OCC5COC(Cn6cncn6)(c6ccc(Cl)cc6Cl)O5)cc4)CC3)cc2)c1=O (stereo not given) [ITRACONAZOLE] | 1 (≈ 1.42 µM) | 0.125 (≈ 0.177 µM) | 0.5 (≈ 0.709 µM) | 0.5 (≈ 0.709 µM) | 4 (≈ 5.67 µM) | – | – | – | – | – | – | – | – | – |

Reference: ChEMBL document CHEMBL4028803, “Design, synthesis, and structure-activity relationship studies of benzothiazole derivatives as antifungal agents” (Eur J Med Chem, 2016)
